This experiment has as its target T1, human V1a receptor (Homo sapiens, UniProt P37288).
T1 construct: expressed in transfected cells; host or cells: HEK293 cells, transiently transfected; membrane preparation
Put plainly: human V1a receptor binding (3H-Vasopressin SPA, membranes of transfected HEK293 cells). The settings on record: displacement of 3H-Vasopressin; Ki calculated from IC50 using the Cheng-Prussoff equation. The method, then:
The human V1a receptor was cloned by RT-PCR from total human liver RNA. The coding sequence was subcloned in an expression vector after sequencing to confirm the identity of the amplified sequence. […] Cell membranes were prepared from HEK293 cells transiently transfected with the expression vector and grown in 20 liter fermenters with the following protocol.
50 g of cells were resuspended in 30 ml freshly prepared ice cold Lysis buffer (50 mM HEPES, 1 mM EDTA, 10 mM MgCl2 adjusted to pH=7.4+complete cocktail of protease inhibitor (Roche Diagnostics)), homogenized with Polytron for 1 min, and sonicated on ice for 2×2 minutes at 80% intensity (Vibracell sonicator). The preparation was centrifuged 20 min at 500 g at 4° C., the pellet was discarded, and the supernatant centrifuged 1 hour at 43'000 g at 4° C. (19'000 rpm). The pellet was resuspended in 12.5 ml Lysis buffer+12.5 ml Sucrose 20% and homogenized using a Polytron for 1-2 min. The protein concentration was determined by the Bradford method and aliquots were stored at −80° C. until use. For binding studies, 60 mg Yttrium silicate SPA beads (Amersham) were mixed with an aliquot of membrane in binding buffer (50 mM Tris, 120 mM NaCl, 5 mM KCl, 2 mM CaCl2, 10 mM MgCl2) for 15 minutes with mixing. 50 ul of bead/membrane mixture was then added to each well of a 96 well plate, followed by 50 ul of 4 nM 3H-Vasopressin (American Radiolabeled Chemicals). For total binding measurement 100 ul of binding buffer were added to the respective wells, for non-specific binding 100 ul of 8.4 mM cold vasopressin were added, and for compound testing 100 ul of a serial dilution of each compound in 2% DMSO were added. The plate was incubated Ih at room temperature, centrifuged 1 min at 1000 g and counted on a Packard Top-Count. Non-specific binding counts were subtracted from each well and data was normalized to the maximum specific binding set at 100%. To calculate an IC 50, the curve was fitted using a non-linear regression model (XLfit) and the Ki was calculated using the Cheng-Prussoff equation.

One may read the Ki as the dissociation constant of the complex between target and ligand, obtained from inhibition or displacement.

T1 sequence (P37288 whole entry): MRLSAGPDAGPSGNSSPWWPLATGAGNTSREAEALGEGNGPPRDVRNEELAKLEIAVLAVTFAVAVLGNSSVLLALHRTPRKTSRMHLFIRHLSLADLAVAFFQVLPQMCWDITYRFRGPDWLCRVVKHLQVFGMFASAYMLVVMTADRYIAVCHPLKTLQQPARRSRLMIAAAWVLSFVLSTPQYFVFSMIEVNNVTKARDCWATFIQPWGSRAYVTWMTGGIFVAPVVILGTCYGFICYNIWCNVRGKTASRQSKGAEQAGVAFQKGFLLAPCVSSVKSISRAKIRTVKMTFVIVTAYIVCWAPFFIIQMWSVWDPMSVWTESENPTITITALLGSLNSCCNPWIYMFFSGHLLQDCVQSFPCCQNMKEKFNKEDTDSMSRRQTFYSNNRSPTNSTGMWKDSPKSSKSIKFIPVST

Regarding `N#CCn1c(C(=O)N2CCC(n3c(=O)[nH]c4ccccc43)CC2)cc2cc(Br)ccc21` [Example 3, {5-Bromo-2-[4-(2-oxo-2,3-dihydro-benzoimidazol-1-yl)-piperidine-1-carbonyl]-indol-1-yl}-acetonitrile], the Ki was 12 nM.
The figure for `COc1ccc2[nH]c(C(=O)N3CCC(n4c(=O)[nH]c5ccccc54)CC3)c(NC(=O)c3ccccc3[N+](=O)[O-])c2c1` [Example 10, N-{5-Methoxy-2-[4-(2-oxo-2,3-dihydro-benzoimidazol-1-yl)-piperidine-1-carbonyl]-1H-indol-3-yl}-2-nitro-benzamide] is 20 nM; for `Cc1ccc2[nH]c(C(=O)N3CCC(n4c(=O)[nH]c5ccccc54)CC3)c(NC(=O)c3ccc(F)cc3)c2c1` [Example 11] it is 39.8 nM.
For the molecule `CCOC(=O)Cc1c(C(=O)N2CCC(n3c(=O)[nH]c4ccccc43)CC2)[nH]c2ccccc12` [Example 14, {2-[4-(2-Oxo-2,3-dihydro-benzoimidazol-1-yl)-piperidine-1-carbonyl]-1H-indol-3-yl}-acetic acid ethyl ester], the Ki is 41.7 nM.
Take `O=C(c1cc2cccc(OCc3ccccc3)c2[nH]1)N1CCC(n2c(=O)[nH]c3ccccc32)CC1` [Example 37, 1-[1-(7-Benzyloxy-1H-indole-2-carbonyl)-piperidin-4-yl]-1,3-dihydro-benzoimidazol-2-one]: the Ki was 21.9 nM.
Consider `N#CCn1c(C(=O)N2CCC(n3c(=O)[nH]c4ccccc43)CC2)cc2cc(Cl)ccc21` [Example 45, {5-Chloro-2-[4-(2-oxo-2,3-dihydro-benzoimidazol-1-yl)-piperidine-1-carbonyl]-indol-1-yl}-acetonitrile], for which the Ki is 32 nM.
In the case of `N#CCc1cc(Cl)cc2cc(C(=O)N3CCC(n4c(=O)[nH]c5ccccc54)CC3)[nH]c12` [Example 46, {5-Chloro-2-[4-(2-oxo-2,3-dihydro-benzoimidazol-1-yl)-piperidine-1-carbonyl]-1H-indol-7-yl}-acetonitrile], the Ki is 35.5 nM.
Then `O=C(c1cc2cc(Cl)ccc2[nH]1)N1CCC(N2C(=O)Cc3ccccc32)CC1` [Example 47, 1-[1-(5-Chloro-1H-indole-2-carbonyl)-piperidin-4-yl]-1,3-dihydro-indol-2-one], with 64.6 nM; and `O=C(c1cc2cc(Cl)ccc2[nH]1)N1CCC(n2nnc3ccccc32)CC1` [Example 48, (4-Benzotriazol-1-yl-piperidin-1-yl)-(5-chloro-1H-indol-2-yl)-methanone], with 385 nM.
